Assay results as given in patent US20230096750A1, “Cyanine dyes and their usage for in vivo staining of microorganisms and other living cells” (Philipps-Universität Marburg, priority 2021, published 2023).
Where two headings read alike, the source gives them in different places.

Key:
[1] = Molar extinction coefficients; assay type: physicochemical
dsDNA [2] = assay: Fluorescence titrations (affinity towards dsDNA); assay type: binding; conditions: for RFU for slits 5/5: value given in Slits column for slits 5/5 nm instead of 10/10; for RFU + DNA: with DNA; for RFU − DNA: without DNA; for Kd: affinity towards dsDNA
Experimental: The affinity of the TramTO derivatives towards dsDNA is usually higher than the affinity of the derivatives without the modified side chain according to this invention. […] KD values are determined as is well known to any person being of ordinary skill in the art.

[3] = tested on: live and dead bacteria (E. Coli); assay: Flow cytometry of live versus dead cells labelled with 6-TramTO-1; assay type: cell-based; conditions: 5 μM dye for 5 min
Experimental: The flow cytometric measurements are performed by use of the LSR Fortessa cell analyser (BD Biosciences, USA) or other commercially available apparatuses (e.g. FACSAria III (BD Biosciences, USA) and Guava easyCyte (Merck Millipore, USA)). […] A minimum of 10000 events per sample is analysed. The measurements are each performed in at least two independent experiments. Bacteria are labelled for 15 min with 5 μM of the corresponding dyes. […] For 6-TramTO-1 (1) one can see clear labelling when 5 μM of the dye are added for only 5 min before the measurements, dead cells (treated with 70% isopropanol for 1 h, then washed with saline 3×) being labelled about 10× stronger: MFI 135 vs 1337. FIGS. 5A-5C show additional data. […] FIG. 5B: The graphs of FIG. 5B show flow cytometric data of mixtures of dead and live E. Coli treated with left graph: PI (20 μM) and right graph: 6-TramTO-1 (1, 5 μM) for 5 min showing that the TramTO and PI give the same results. • The parameter settings regarding excitation/emission (as far as they are applied) are equivalent to those described within the legend of FIG. 5A.

HeLa cells = assay: Viability of HeLa cells, resazurin fluorescence-based cell viability assay; conditions: dye concentration of 10 μM
dsDNA [4] = conditions: affinity towards dsDNA; read-out: KD (literature value); cited from earlier work
[5] = solvent DMSO; cited from earlier work

| Compound | RFU for slits 5/5 (dsDNA [2]) [RFU)] | RFU + DNA (dsDNA [2]; slits 10/10 nm) [RFU] | RFU − DNA (dsDNA [2]; slits 10/10 nm) [RFU] | Molar extinction coefficient ([1]; solvent H2O) [M⁻¹ cm⁻¹] | Kd (dsDNA [2]) [µM] | RFU + DNA (dsDNA [2]; slits 5/5 nm) [RFU] | RFU − DNA (dsDNA [2]; slits 5/5 nm) [RFU] | further results |
| --- | --- | --- | --- | --- | --- | --- | --- | --- |
| CN(C)c1ccc(/C=C/c2sc3ccccc3[n+]2CCCCCCn2cc(CN)nn2)cc1 [6-TramTAS (2), (E)-3-(6-(4-(aminomethyl)-1H-1,2,3-triazol-1-yl)hexyl)-2-(4-(dimethylamino)styryl)benzo[d]thiazol-3-ium] | ~8 | 90 | 2.9 | – | – | – | – | Molar extinction coefficient ([1]; solvent MeCN): 70463 M⁻¹ cm⁻¹ |
| CC[n+]1ccc(/C=C2\Sc3ccccc3N2CCCCCCn2cc(CN)nn2)c2ccccc21 [6-TramTO-1 (1), (Z)-4-((3-(6-(4-(ammoniomethyl)-1H-1,2,3-triazol-1-yl)hexyl)benzo[d]thiazol-2(3H)-ylidene)methyl)-1-ethylquinolin-1-ium] | – | – | – | 61813 | 8.63 ± 4.34 | 460 | 1.2 | labelling of dead cells stronger than live cells [3]: about 10 ×; MFI ([3]; dead cells (70% isopropanol for 1 h)): 1337; MFI ([3]; live cells): 135; affinity towards dsDNA, superior to 6-TramTAS (dsDNA [2]; ratio versus 6-TramTAS): ~3 ×; affinity towards dsDNA, superior to 6-TramTO-3 (dsDNA [2]; ratio versus 6-TramTO-3): ~2 × |
| CC[n+]1ccc(/C=C/C=C2\Sc3ccccc3N2CCCCCCn2cc(CN)nn2)c2ccccc21.[I-] [6-TramTO-3 (3)] | – | – | – | 59403 | 23 ± 1.81 | 280 | 11.8 | viability of HeLa cells compared to reference (HeLa cells): about 97%; Kd (dsDNA [4]): 19.5 ± 2.6 µM |
| CC[n+]1ccc(/C=C2\Sc3ccccc3N2C)c2ccccc21 [CH3TO-1 (4), (Z)-1-ethyl-4-((3-methylbenzo[d]thiazol-2(3H)-ylidene)methyl)quinolin-1-ium, reference compound] | ~10 | 125 | 0.2 | – | 20.6 ± 6.67 | – | – | Molar extinction coefficient (lit.) [5]: lit. 63000 M^−1cm^−1 |
| CC[n+]1ccc(/C=C2\Sc3ccccc3N2C)c2ccccc21 [CH3TO-3 (6), (Z)-1-ethyl-4-((3-methylbenzo[d]thiazol-2(3H)-ylidene)methyl)quinolin-1-ium, reference compound] | – | – | – | – | 45 ± 1.05 | 210 | 6.8 | Molar extinction coefficient ([1]; solvent DMSO): 37153 M⁻¹ cm⁻¹ |
